In US20250154525A1, “PLANT VIRUS MOVEMENT PROTEINS AND METHODS OF USING SAME” (Molecular Transfer, Inc., priority 2016, published 2025):

Key:
HeLa Cells [1] = assay: GFP plasmid transfection with DOTMA/DOPE plus surface ligand peptide, fluorescent plate reader (Example 1); format: cell-based; conditions: DOTMA/DOPE + peptide linked to R12 or K16; EF1Alpha eGFP plasmid; 42 hours
Protocol: (§1) Cells were plated to so that on the day of transfection the cells were 70% confluent in 96 well tissue culture plates. A DOMTA/DOPE Lipid solution (1:1 molar ratio) at 2 mg/mL in water were mixed with an equal volume cell surface ligand containing adhesion peptide, the plant virus movement protein, or peptide derived therefrom, that had the nucleic acid binding moiety RRRRRRRRRRRR (SEQ ID NO:109) or KKKKKKKKKKKKKKKK (SEQ ID NO: 102) covalently linked to the N-terminus, or C-terminus of each peptide during peptide synthesis. Peptides were at 2 mg/mL in water. The DOTMA/DOPE and the solution containing the cell surface ligand containing adhesion peptide, the plant virus movement protein, or peptide derived therefrom, surface ligand peptide the was diluted 1 to 1 (v/v) in water. DOMTA/DOPE/PEPTIDE solutions were added to 0.1 mL of a plasmid DNA solution (EF1Alpha eGFP plasmid) at 10 μg/mL in OptiMEM.
(§2) All solutions were at room temperature. A volume of 0.2 mL of a 10 μg/mL solution of DNA was aliquoted into each well of a non-tissue cultured treated plate. 1-12 μL of transfection reagents were added to DNA solutions respectively. The transfection reagent and DNA solution was mixed by pipetting up and down twice. Transfection complexes were formed for 10 minutes. After 10 minutes, 0.01 or 0.02 mL of the transfection complex was added to cells. HuVEC, HeLa, human adult keratinocytes, human primary adult fibroblast, and A549 cells all respectively received 0.01 mL of the transfection complex. Human skeletal muscle cells, mouse C2C12 cells, and Jurkat, cells received 0.02 mL of the transfection complex. Cells were incubated for 42 hours at 37° C. at 5% CO2. Plates were read on a fluorescent plate reader. Cells were also examined visually under a microscope to assess the extent of transfection (in terms of the percent of cells transfected) with a fluorescent microscope. Other modes of analysis, for example quantification with B-galactocidase or luciferase reports plasmids can also be used.
(§3) Surface ligand that caused increase expression of GFP over the lipid DOTMA with no surface ligand were considered to enhance transfection or had higher % cells transfected were considered to enhance transfection. Peptides that gave greater than 2-fold enhancement are noted in bold and could be further optimized by adding different transfection enhancers or could be used with different cationic lipids or polymers.
(§4) Tables 2-7, below, provide the results of the transfection enhancements with the various cell types, while Table 8 lists the peptides that were determined by visual inspection to enhance the transfection of the denoted cell lines over the lipid DOTMA.

NL-1 iPS Cells = assay: as above; format: cell-based; conditions: DOTMA/DOPE + peptide linked to R12 or K16; EF1Alpha eGFP plasmid; 42 hours
Protocol: as §1, §2, §3, §4

Human Fibroblast Cells = assay: as above; format: cell-based; conditions: DOTMA/DOPE + peptide linked to R12 or K16; EF1Alpha eGFP plasmid; 42 hours
Protocol: as §1, §2, §3, §4

Jurkat Cells = assay: as above; format: cell-based; conditions: DOTMA/DOPE + peptide linked to R12 or K16; EF1Alpha eGFP plasmid; 42 hours
Protocol: as §1, §2, §3, §4

HuVec Cells = assay: as above; format: cell-based; conditions: DOTMA/DOPE + peptide linked to R12 or K16; EF1Alpha eGFP plasmid; 42 hours
Protocol: as §1, §2, §3, §4

C2C12 Cells = assay: as above; format: cell-based, mouse; conditions: DOTMA/DOPE + peptide linked to R12 or K16; EF1Alpha eGFP plasmid; 42 hours
Protocol: as §1, §2, §3, §4

some examined cell types = assay: Summary of Example 1: transfection expression and % cells transfected over the no peptide control; format: cell-based; conditions: on some examined cell types
Protocol: as §1, §2, §3

HeLa Cells [2] = assay: GFP transfection with DOTMA/SEQ ID NO: 72 (fusogenic peptide)/peptide compared with Lipofectamine 2000; format: cell-based
Protocol: as §1, §2
The fusogenic peptide was added to the DOMTA/peptide formulation to achieve a final concentration of 0.1 mg/mL to see if transfection reagents were further enhanced by the addition of a fusogenic peptide and could provide higher transfection efficiency into HeLa cells and expression than the commercially available Lipofectamine 2000.

[3] = 0.1 μL of DOTMA/SEQ ID NO: 72/Peptide in well of a 96 well plate
[4] = 0.2 μL of DOTMA/SEQ ID NO: 72/Peptide in well of a 96 well plate
[5] = 0.3 μL of DOTMA/SEQ ID NO: 72/Peptide in well of a 96 well plate
[6] = 0.4 μL of DOTMA/SEQ ID NO: 72/Peptide in well of a 96 well plate

Substance	Relative Fluorescence of Transfection of HeLa Cells (RF) (HeLa Cells [1])	Relative Fluorescence of Transfection of NL-1 iPS Cells (RF) (NL-1 iPS Cells)	Relative Fluorescence of Transfection of Human Fibroblast Cells (RF) (Human Fibroblast Cells)	Relative Fluorescence of Transfection of Jurkat Cells (RF) (Jurkat Cells)	Relative Fluorescence of Transfection of HuVec Cells (RF) (HuVec Cells)	Relative Fluorescence of Transfection of C2C12 Cells (RF) (C2C12 Cells)	transfection expression and % cells transfected over the no peptide control (some examined cell types)	Relative Fluorescence DOTMA/SEQ ID NO: 72/Peptide, HeLa Cells (RF) (HeLa Cells [2]; [3])	Relative Fluorescence DOTMA/SEQ ID NO: 72/Peptide, HeLa Cells (RF) (HeLa Cells [2]; [4])	Relative Fluorescence DOTMA/SEQ ID NO: 72/Peptide, HeLa Cells (RF) (HeLa Cells [2]; [5])	Relative Fluorescence DOTMA/SEQ ID NO: 72/Peptide, HeLa Cells (RF) (HeLa Cells [2]; [6])
359 (KAFDITYVRLKF) [compound 359]	3136	5548	3206	1880	3024	5693	increased transfection expression and the % cells transfected	–	–	–	–
502 (RNIAEIIKDI) [compound 502]	–	–	–	–	–	2589	–	–	–	–	–
354 (SINNTAVMQRLT) [compound 354]	4403	24043	4998	16705	19284	1912	increased transfection expression and the % cells transfected	–	–	–	–
363 (LAGSCLARFSTM) [compound 363]	2590	4189	3008	2432	1383	1080	–	–	–	–	–
393 (LGTIPG) [compound 393]	–	–	–	–	–	–	increased transfection expression and the % cells transfected	–	–	–	–
235 (KARSFNVNQLLQD) [compound 235]	–	–	–	–	26940	–	–	–	–	–	–
239 (KNSFMALYLSKGRLVFALG) [compound 239]	2717	4129	4084	2343	1404	10620	increased transfection expression and the % cells transfected	–	–	–	–
220 (ATETTITIS) [compound 220]	9398	15892	4516	6428	8737	1470	increased transfection expression and the % cells transfected	–	–	–	–
335 (TVFSVDQDNMLE) [compound 335]	26954	14424	8534	4567	6350	4689	–	12866	12458	11547	9753
501 (DLGTAGSCLRRFSTM) [compound 501]	–	–	9473	12350	–	5913	increased transfection expression and the % cells transfected	23571	23993	20410	14749
